Values joined by “and” are separate entries in the source; they are usually repeats but may differ in a detail not shown here. Identical values can stand only once.
Columns and labels:
[1] = tested on: HT1080-(CAG)850 contact inhibition; test: small-pool PCR repeat instability, non-proliferating HT1080-(CAG)850 cells under contact inhibition; type: cell-based, human; conditions: 50 uM NA, 30 days
Description: The construction of the HT1080-(CAG)850 cell model was described previously (Sathasivam et al., 1997, Hum. Genet., 99:692-5). Briefly, HT1080 (ATCC) human fibrosarcoma cells were co-transfected with a plasmid (LC15-R) containing 800-850 (CTG)●(CAG) repeats (Nakatani et al., 2005, Nat. Chem. Biol., 1:39-43) and a plasmid encoding PhiC31 integrase. Transfection was performed with a Nucleofector (Lonza, Basel, Switzerland), and stably transfected clones were selected with puromycin. […] The HT1080-non-transcribing (CAG)850 cell model was established by transfecting a plasmid modified from pLC16 by inserting an additional SV40 polyadenylation signal downstream of the repeats (in addition to the original polyadenylation signals located upstream of the repeats), so that CAG/CTG repeats are floxed by transcription-terminator elements. The AttB-PhiC31 system has been widely used for single copy integration. […] The HT1080 model cells and an HD primary fibroblast cell line, GM09197 (Coriell Biorepository) with a large expanded allele of 180 CAG repeats and a non-expanded allele of 23 repeats (Sathasivam et al., 1997, Hum. Genet., 99:[…]), the HD primary fibroblast cell line, GM02191 (Coreill Biorepository) with an expanded allele of 43 CAG repeats and a non-expanded allele of 19 repeats, were cultured at 37° C. with 5% CO2 in Dulbecco's modified Eagle's medium supplemented with 10% fetal bovine serum and 1% penicillin/streptomycin. Cells were treated with or without continuous exposure to 50-μM NA for 30 days (HT1080 cells) or for 40 days (fibroblast cells). For experiments on non-proliferating cells, HT1080 cells were grown to confluence and then treated for the same period. WST-1 assay was performed according to the manufacturer's instructions (Roche, Basel, Switzerland). All cell lines were tested to be free of Mycoplasma. Three biological replicates were performed for each experiment.
Proliferation was inhibited by growth under contact inhibition and serum starvation, as previously performed. Degree of arrest from proliferation was assessed in living cells by counting BrdU positive cells after 24 hrs incubation with BrdU in proliferating or contact-inhibited (and serum starved) HT1080-(CAG)850 cells. The percentage of BrdU positive cells was 92.6% in proliferating cells and 8.17% in contact-inhibited cells. Although a small portion of HT1080-(CAG)850 cells were still proliferating even under contact-inhibition and serum starvation, the ratio is very small. Based on a calculation how many cells derive from a single cell after 30 days (the period that was studied) (proliferating, 1.926^30=348653546.6; contact inhibition, 1.0817^30=10.55), the effect of proliferation in contact-inhibited cells can be ignored.
Genomic DNA was extracted from HT1080-(CAG)850 clones and HD primary fibroblasts using the Gentra Puregene Cell Kit (Qiagen, Valencia, Calif.). The expanded (CTG)●(CAG) repeats were sized by small-pool PCR (sp-PCR) followed by Southern blot as described previously (Sathasivam et al., 1997, Hum. Genet., 99:692-5). For HT1080 models, small-pool PCR (spPCR) was performed with the input of 1.4-1.7 genome equivalents. The repeat size difference in the models is, at most, 3000 base-pairs, therefore, being strictly conservative, a bias toward amplifying the shorter allele can be possible, even under optimized PCR conditions described herein. For HD primary fibroblasts, sp-PCR & Southern blots were performed as described previously with slight modifications (Tome et al., 2013, PLoS Genet., 9:e1003280). Briefly, the PCR primers listed in Table 1 were used, and blots were hybridized with a DIG-labeled (CAG)7 locked nucleic acid probe (Nakamori et al. 2009, Neuromuscul. Disord., 19:759-62).

long (CTG)20 slip-out = test: in vitro repair assay by HeLa cell extracts, long (CTG)20 slip-out; type: biochemical, human
From the text: Panel A of […] is a schematic of the in vitro repair assay. Starting DNAs and repair products released the repeat-containing fragment, which is resolved on PAGE and assessed on a molar level by Southern blotting and densitometry. Repair of different DNA substrates containing a long (CAG)20 slip-out (Panel B of FIG. 3) long (CTG)20 slip-out (Panel C of FIG. 3), a single CAG slip-out (Panel D of FIG. 3) or a single G-T mismatch (Panel E of FIG. 3), in the absence or in the presence of NA. Slipped-DNA substrates were prepared from hybrids of (CAG)50●(CTG)30, (CAG)30●(CTG)50 or of (CAG)50●(CTG)49. Repair of the G-T mismatch reconstitutes a HindIII restriction site, as shown schematically. Graphs show percentage repair efficiencies to repaired product relative to all repeat-containing fragments in the lane, values are normalized to the NA-free efficiency. […]
To determine how the binding of NA to slipped DNA structures affects repair, a series of circular slipped heteroduplex substrates was made with an excess of repeats with a nick located either 5′ or 3′ of the slip-out (FIG. 3). […] All these substrates were processed in […] by HeLa extracts and then were assessed for repair. Repair products were analyzed by Southern blotting, probed for the repeat-containing fragment, and compared with starting material, which permitted quantitative assessment of repair efficiency at a molar level. […]

[2] = tested on: CAG/CTG R-loops processed by neuron-like human SH-SY5Y cell extracts; test: R-loop processing by SH-SY5Y cell extracts, STRIP assay; type: biochemical; conditions: NA 50 μM; p=0.002
Description: Double-R-loops were then treated with RNaseA or H (labeled “A” or “H”) and incubated with 50 μM of NA. Reaction products were then resolved on 1% agarose gel. […] Pre-formed double-R-loops were processed by terminally differentiated (retinoic acid) human neuron-like cell extracts (SH-SY5Y) in the absence or presence of NA (50 μM), as described and DNA repeat lengths were assessed as expansions, contractions, or stable, by the STRIP assay. […] Transcription products were isolated, processed and transformed in E. coli cells, previously shown to stably maintain the (CAG)79●(CTG)79 lengths. Plasmids isolated from individual bacterial colonies were digested with restriction enzymes to release the repeat containing fragment, resolved on 4% polyacrylamide gels and scored for instability.
R-loop templates prepared from in vitro transcription and RNase A treatments were incubated with NA and then processed by extracts of HeLa or SH-SY5Y neuroblastoma cells, where the latter were terminally differentiated by retinoic acid, as previously described (Panigrahi et al., 2005, Nat. Struct. & Mol. Biol., 12:654-62). […] Miniprep DNA was analyzed for changes in repeat length by analysis of the repeat-containing fragment on 4% polyacrylamide gels. […]

(CAG)10 hairpins = conditions: cited from earlier work
[3] = single experiments Ex 1-3, cut-off ±25 repeats

naphthyridine-azaquinolone
% Contraction ([1]; Total): 53.3% | % Expansion ([1]; Total): 16.6% | % Unchanged ([1]; Total): 30.2% | Average Change of Repeat Size ([1]; Total): −90.9 number of repeats | % Unchanged ([1]; single experiments Ex 1-3): 34.9% and 25.0% and 30.0% | % Contraction [1, 3]: 49.2% and 57.1% and 54.0% | % Expansion [1, 3]: 15.9% and 17.9% and 16.0% | effect on repair of long (CTG)20 slip-outs (long (CTG)20 slip-out): doesn't affect the repair efficiency | effect on R-loop processing products (contractions, expansions) [2]: significantly increasing the number of contraction products but not expansion products | melting temperature of (CAG)10 hairpins with NA ((CAG)10 hairpins; 50 μM NA, 47.1 (±0.7)° C. without NA): 78.8 (±0.1) ° C. | increase of the melting temperature of (CAG)10 hairpins ((CAG)10 hairpins): > 30 °C
